Measurements from article PMC6122390, “Synthesis of 1,4-imino-L-lyxitols modified at C-5 and their evaluation as inhibitors of GH38 α-mannosidases” (Beilstein Journal of Organic Chemistry, 2018).
Like-named read-outs stand apart in the source and are kept apart here.

Legend:
[1] = molecular target: Drosophila melanogaster Golgi α-mannosidase II (GMIIb) (Drosophila melanogaster, UniProt Q9VF33); assay: Inhibition of Golgi α-mannosidase II (GMIIb), pNP-Man substrate; type: biochemical; details: for IC50: 2 mM pNP-Man; for fold decrease in inhibition activity against GMIIb in comparison with 1a: relative to 1a
Drosophila melanogaster Golgi α-mannosidase II (GMIIb), sequence (Q9VF33 entry or part of it): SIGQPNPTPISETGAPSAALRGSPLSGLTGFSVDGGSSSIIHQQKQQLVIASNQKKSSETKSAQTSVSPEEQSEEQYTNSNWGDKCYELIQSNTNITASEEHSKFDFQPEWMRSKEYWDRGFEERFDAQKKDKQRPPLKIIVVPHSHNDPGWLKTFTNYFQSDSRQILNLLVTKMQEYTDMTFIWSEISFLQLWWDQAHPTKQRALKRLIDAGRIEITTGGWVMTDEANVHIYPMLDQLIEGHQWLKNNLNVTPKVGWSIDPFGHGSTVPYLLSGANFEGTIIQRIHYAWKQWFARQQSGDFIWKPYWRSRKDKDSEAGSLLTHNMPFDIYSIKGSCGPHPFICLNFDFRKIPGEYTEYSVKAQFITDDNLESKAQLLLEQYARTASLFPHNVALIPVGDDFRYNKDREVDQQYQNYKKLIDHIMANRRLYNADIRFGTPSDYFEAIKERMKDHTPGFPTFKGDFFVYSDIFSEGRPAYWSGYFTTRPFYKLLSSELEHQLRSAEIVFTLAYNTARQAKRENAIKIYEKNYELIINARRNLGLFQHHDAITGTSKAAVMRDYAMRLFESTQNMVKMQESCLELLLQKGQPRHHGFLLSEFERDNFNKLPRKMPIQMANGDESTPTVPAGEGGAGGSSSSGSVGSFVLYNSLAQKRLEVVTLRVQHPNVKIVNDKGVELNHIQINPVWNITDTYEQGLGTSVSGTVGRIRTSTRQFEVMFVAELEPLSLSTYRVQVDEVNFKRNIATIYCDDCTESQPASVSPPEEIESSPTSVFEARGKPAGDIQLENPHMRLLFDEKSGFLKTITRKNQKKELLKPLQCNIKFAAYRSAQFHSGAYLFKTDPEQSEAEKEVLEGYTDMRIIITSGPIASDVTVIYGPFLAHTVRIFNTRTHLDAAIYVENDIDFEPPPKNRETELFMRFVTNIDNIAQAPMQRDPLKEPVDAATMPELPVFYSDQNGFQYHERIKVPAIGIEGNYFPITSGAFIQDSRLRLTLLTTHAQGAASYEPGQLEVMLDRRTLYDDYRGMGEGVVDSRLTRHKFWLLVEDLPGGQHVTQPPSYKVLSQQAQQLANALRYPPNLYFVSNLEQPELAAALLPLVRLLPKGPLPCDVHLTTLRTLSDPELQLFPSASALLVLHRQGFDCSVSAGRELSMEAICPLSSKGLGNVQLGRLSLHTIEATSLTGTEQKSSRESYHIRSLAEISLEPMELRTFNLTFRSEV
Procedure: (§1) The purification and characterization of recombinant Drosophila melanogaster Golgi α-mannosidase II [9] (GMIIb) and lysosomal α-mannosidase II (LManII) was carried out as already described. Activity of prepared mannosidases was measured using p-nitrophenyl-α-D-mannopyranoside (pNP-Man; Sigma-Aldrich) as a substrate at 2 mM concentration prepared from a 100 mM stock in dimethyl sulfoxide by dilution in 50 mM acetate buffer at optimal pH for the enzymes (Jack bean α-mannosidase (JBMan) at pH 5.0, Golgi α-mannosidase (GMIIb) at pH 6.0 and lysosomal α-mannosidase (LManII) at pH 5.2) and 0.5 μL of the enzyme (0.05 µg of protein for Jack bean α-mannosidase), in a total volume of 50 μL for 1–2 h at 37 °C. GMIIb was assayed in the presence of 0.5 mM CoCl2. Pyrrolidines 2–5 used in biochemical evaluation were lyophilized before use. The inhibitors 2–5 were pre-incubated with the enzyme in the buffer for 5 min at rt and the reaction was started by addition of the substrate. The reactions were terminated with two volumes (0.1 mL) of 0.5 M sodium carbonate and the production of p-nitrophenol was measured at 405 nm using a multimode reader Mithras LB943 (Berthold Technologies). The IC50 value was determined with 2 mM pNP-Man. All biochemical assays were performed in 96 well microplates in triplicate.

[2] = molecular target: lysosomal α-mannosidase II (LManII) (Drosophila melanogaster, UniProt Q9VKV1); assay: Inhibition of lysosomal α-mannosidase II (LManII), pNP-Man substrate; type: biochemical; details: n.i. = no inhibition, 2 mM pNP-Man, pH 5.2
lysosomal α-mannosidase II (LManII), sequence (Q9VKV1 entry or part of it): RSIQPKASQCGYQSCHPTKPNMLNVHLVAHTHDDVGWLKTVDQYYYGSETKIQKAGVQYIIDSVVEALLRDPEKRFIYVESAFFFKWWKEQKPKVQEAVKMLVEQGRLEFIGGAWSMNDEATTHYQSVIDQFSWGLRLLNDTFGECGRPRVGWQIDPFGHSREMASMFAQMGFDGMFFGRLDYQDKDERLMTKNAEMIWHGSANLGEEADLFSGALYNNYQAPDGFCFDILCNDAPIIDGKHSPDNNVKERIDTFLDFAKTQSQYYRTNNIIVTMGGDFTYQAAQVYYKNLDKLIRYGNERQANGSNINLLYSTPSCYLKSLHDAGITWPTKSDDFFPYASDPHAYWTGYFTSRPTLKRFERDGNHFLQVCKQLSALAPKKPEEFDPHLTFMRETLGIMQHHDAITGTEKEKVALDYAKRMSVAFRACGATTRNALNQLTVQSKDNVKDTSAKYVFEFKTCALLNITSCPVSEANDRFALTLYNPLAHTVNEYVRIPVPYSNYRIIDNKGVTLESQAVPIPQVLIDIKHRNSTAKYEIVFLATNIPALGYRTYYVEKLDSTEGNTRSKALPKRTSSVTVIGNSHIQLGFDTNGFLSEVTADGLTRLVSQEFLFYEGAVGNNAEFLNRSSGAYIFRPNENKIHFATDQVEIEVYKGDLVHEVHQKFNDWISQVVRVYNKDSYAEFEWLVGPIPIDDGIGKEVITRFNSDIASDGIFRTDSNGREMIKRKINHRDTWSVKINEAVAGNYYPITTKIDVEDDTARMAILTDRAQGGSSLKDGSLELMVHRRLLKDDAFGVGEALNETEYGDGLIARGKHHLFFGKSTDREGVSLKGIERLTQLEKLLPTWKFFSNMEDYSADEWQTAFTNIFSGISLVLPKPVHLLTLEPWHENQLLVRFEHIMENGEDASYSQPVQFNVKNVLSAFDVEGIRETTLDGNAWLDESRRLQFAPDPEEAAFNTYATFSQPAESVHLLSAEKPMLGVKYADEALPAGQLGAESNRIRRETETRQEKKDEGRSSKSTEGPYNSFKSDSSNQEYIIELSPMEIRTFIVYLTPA
Procedure: as §1

[3] = molecular target: T1, Jack bean α-mannosidase (JBMan) (Canavalia ensiformis, UniProt C0HJB3); assay: Inhibition of jack bean α-mannosidase (JBMan), pNP-Man substrate; type: biochemical; details: n.i. = no inhibition, 2 mM pNP-Man; for inhibition at 2000 µM: pH 5, 2 mM inhibitor, read-out: JBMan (%) inhibition in the presence of 2 mM inhibitor concentration; for JBMan (%) inhibition in the presence of 2 mM inhibitor concentration: pH 5.0
T1 construct: purchased
T1 sequence (C0HJB3 1-981): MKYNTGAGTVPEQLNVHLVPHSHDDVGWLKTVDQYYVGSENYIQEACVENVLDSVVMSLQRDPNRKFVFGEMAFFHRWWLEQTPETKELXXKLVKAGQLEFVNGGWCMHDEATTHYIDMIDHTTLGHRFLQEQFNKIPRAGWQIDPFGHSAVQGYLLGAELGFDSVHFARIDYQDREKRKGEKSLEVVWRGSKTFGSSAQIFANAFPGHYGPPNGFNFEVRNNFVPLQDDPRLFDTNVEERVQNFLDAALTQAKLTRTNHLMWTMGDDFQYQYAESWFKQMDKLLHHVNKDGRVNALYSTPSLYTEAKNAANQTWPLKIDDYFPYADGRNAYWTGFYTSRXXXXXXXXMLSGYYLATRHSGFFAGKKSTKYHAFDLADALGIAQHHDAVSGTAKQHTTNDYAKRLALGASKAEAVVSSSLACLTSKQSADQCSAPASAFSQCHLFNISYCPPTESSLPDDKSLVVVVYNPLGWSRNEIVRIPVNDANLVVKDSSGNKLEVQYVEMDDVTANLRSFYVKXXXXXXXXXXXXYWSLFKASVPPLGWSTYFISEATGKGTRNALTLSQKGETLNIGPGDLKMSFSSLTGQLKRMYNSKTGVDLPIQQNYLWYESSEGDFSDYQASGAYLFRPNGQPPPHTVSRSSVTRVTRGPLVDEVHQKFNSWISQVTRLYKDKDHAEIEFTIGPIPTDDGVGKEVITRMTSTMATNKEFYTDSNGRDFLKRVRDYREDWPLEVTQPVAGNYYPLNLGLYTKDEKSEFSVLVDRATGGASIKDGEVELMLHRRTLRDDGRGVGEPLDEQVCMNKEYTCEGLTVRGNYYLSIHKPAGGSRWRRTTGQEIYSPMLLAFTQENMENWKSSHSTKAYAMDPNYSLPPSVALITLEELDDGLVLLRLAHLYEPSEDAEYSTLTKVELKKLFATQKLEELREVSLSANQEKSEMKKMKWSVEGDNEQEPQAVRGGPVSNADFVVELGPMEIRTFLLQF
Procedure: as §1

[4] = pH 6.0, 0.5 mM CoCl2, 37 °C, read-out: GMIIb [IC50 (M)]

| Structure (SMILES) | IC50 [1, 4] | fold decrease in inhibition activity against GMIIb in comparison with 1a [1] | LmanII inhibition in the presence of 2 mM inhibitor concentration [2] | inhibition at 2000 µM [3] | JBMan (%) inhibition in the presence of 2 mM inhibitor concentration [3] | IC50 ([1]; pH 6.0, read-out: GMIIb IC50) | melting point |
| --- | --- | --- | --- | --- | --- | --- | --- |
| C[C@@H](O)[C@H]1[C@@H](O)[C@@H](O)CN1Cc1ccccc1 [Compound 4a] | 0.0018 M | about 25 fold | n.i.^a | 2% | – | – | – |
| C[C@H]1[C@@H](O)[C@@H](O)CN1Cc1ccc(Br)cc1 [Compound 2b] | 0.00035 M | – | n.i.^a | – | n.i. | – | – |
| C[C@H]1[C@@H](O)[C@@H](O)CN1Cc1ccccc1 [Compound 2a] | 0.00036 M | – | n.i.^a | – | n.i. | – | – |
| CC[C@H]1[C@@H](O)[C@@H](O)CN1Cc1ccc(I)cc1 [Compound 3c] | 0.00045 M | – | n.i.^a | 39% | – | < 0.0005 M | – |
| CC[C@H]1[C@@H](O)[C@@H](O)CN1Cc1ccc(Br)cc1 [Compound 3b] | 0.00095 M | – | n.i.^a | 14% | – | – | – |
| C[C@H]1[C@@H](O)[C@@H](O)CN1Cc1ccc(I)cc1 [Compound 2c] | 0.0003 M | – | n.i.^a | – | n.i. | – | – |
| C[C@@H](O)[C@H]1[C@@H](O)[C@@H](O)CN1Cc1ccc(Br)cc1 [Compound 4b] | 0.0016 M | – | n.i.^a | 4% | – | – | – |
| CC[C@H]1[C@@H](O)[C@@H](O)CN1Cc1ccccc1 [Compound 3a] | 0.00075 M | – | n.i.^a | 3% | – | – | 76 to 78 °C |

The next lines start with the values.

| IC50 [1, 4] | fold decrease in inhibition activity against GMIIb in comparison with 1a [1] | LmanII inhibition in the presence of 2 mM inhibitor concentration [2] | inhibition at 2000 µM [3] | JBMan (%) inhibition in the presence of 2 mM inhibitor concentration [3] | IC50 ([1]; pH 6.0, read-out: GMIIb IC50) | melting point | Structure (SMILES) |
| --- | --- | --- | --- | --- | --- | --- | --- |
| 0.0019 M | – | n.i.^a | 17% | – | – | – | C[C@@H](O)[C@H]1[C@@H](O)[C@@H](O)CN1Cc1ccc(I)cc1 [Compound 4c] |
| 0.00265 M | – | n.i.^a | 40% | – | – | – | C[C@H](O)[C@H]1[C@@H](O)[C@@H](O)CN1Cc1ccc(Br)cc1 [Compound 5b, (2S,3R,4S)-1-(4-Bromobenzyl)-2-((S)-1-hydroxyethyl)pyrrolidine-3,4-diol] |
| 0.00295 M | – | n.i.^a | 40% | 38% | – | – | C[C@H](O)[C@H]1[C@@H](O)[C@@H](O)CN1Cc1ccc(I)cc1 [Compound 5c, (2S,3R,4S)-1-(4-Iodobenzyl)-2-((S)-1-hydroxyethyl)pyrrolidine-3,4-diol] |
| 0.00195 M | about 25 fold | n.i.^a | 21% | – | – | – | C[C@H](O)[C@H]1[C@@H](O)[C@@H](O)CN1Cc1ccccc1 [Compound 5a, (2S,3R,4S)-1-Benzyl-2-((S)-1-hydroxyethyl)pyrrolidine-3,4-diol] |
